{"source": "patent US20020016358A1", "about": "“Cosmetic composition” (NOF CORPORATION, priority 2000, published 2002)", "key": {"[1]": {"test_system": "human melanoma cell (HM3KO)", "experiment": "Suppression of melanin formation in human melanoma cell (HM3KO)", "format": "cell-based", "details": "sample 10 μM in medium, cultivation 6 days, absorbance 410 nm of cell lysate, no addition = 100%", "procedure": "(Confirmation of Whitening Effect-1: Suppression of Melanin Formation) Using the obtained compounds of formulae (II) to (V), the effect of suppressing melanin production of human melanoma cell (HM3KO) was examined in vitro. More specifically, HM3KO was cultured to about 5×10^5 by a conventional method, collected by centrifugation to obtain pellets, and inoculated the pellet to a culture dish of 10 cm diameter containing an Eagle's medium supplemented with 10% fetal bovine serum and cultured at 37° C. for 24 hours. Thereafter, each polymethoxyflavone of formulae (II) to (V) was added, or kojic acid or arbutin for comparison was added thereto so that the final addition concentration was 10 μM, followed by cultivation for 6 days. After the cultivation, cells were collected by centrifugation, and 1 ml of 2N sodium hydroxide aqueous solution was added thereto to obtain cell lysate. The absorbance in a wavelength of 410 nm of the cell lysate was measured with a spectrophotometer. Here, the absorbance of the cell lysate to which a sample is not added is defined as 100% of the melanin production ratio, and the melanin production ratios are shown as relative values, measuring the absorbance of each cell lysate."}, "UV-induced pigmentation": {"test_system": "UV-induced pigmentation", "experiment": "Suppression of UV-induced pigmentation in brown guinea pigs", "format": "in vivo", "details": "40 μl twice a day, after UV 0.5 J/cm2; for Pigmentation degree ΔL, After 40 days: no addition −5.2; for Pigmentation degree ΔL, After 20 days: no addition −7.8", "procedure": "(Confirmation of Whitening Effect-2: Suppression of UV-induced Pigmentation)\nUsing brown guinea pigs, the suppression of UV-induced pigmentation was examined in vivo. More specifically, the backs of the brown guinea pigs were shaved and covered with an ultraviolet shielding plate provided with 6 rectangular holes of 2×2 cm, followed by irradiation of UV (0.5 J/cm^2) to induce pigmentation. Thereafter, 40 μl of 70% (W/W) ethanol aqueous solution containing each of polymethoxyflavone (nobiletin) of formula (III) or polymethoxyflavone (tangeretin) of formula (IV) in a concentration shown in Table 2 were applied twice a day. Then, the degrees of pigmentation before and after the application were measured.\nIn Table 2, the pigmentation degree ΔL was obtained by measuring a L value before UV irradiation, which is defined as 0, with a spectrophotometric calorimeter, and obtaining the difference between the L values before and after UV irradiation. A lower value ΔL corresponds to a higher pigmentation degree."}, "[2]": {"details": "sample concentration 0.4% in 70% ethanol"}, "[3]": {"details": "sample concentration 4% in 70% ethanol, lower ΔL = more pigmentation"}, "[4]": {"details": "sample concentration 4% in 70% ethanol"}}, "data": [{"smiles": "OC[C@H]1O[C@@H](Oc2ccc(O)cc2)[C@H](O)[C@@H](O)[C@@H]1O", "note": "[Arbutin, reference compound]", "values": [{"measurement": "Melanin production ratio (% of control)", "setting": "[1]", "result": "97 % of control"}]}, {"smiles": "O=c1cc(CO)occ1O", "note": "[Kojic acid, reference compound]", "values": [{"measurement": "Melanin production ratio (% of control)", "setting": "[1]", "result": "96 % of control"}]}, {"smiles": "COc1ccc(-c2oc3c(OC)c(OC)c(OC)c(OC)c3c(=O)c2OC)cc1OC", "note": "[formula (II), 3,5,6,7,8,3′,4′-heptamethoxyflavone]", "values": [{"measurement": "Melanin production ratio (% of control)", "setting": "[1]", "result": "65 % of control"}]}, {"smiles": "COc1ccc(-c2cc(=O)c3c(OC)c(OC)c(OC)c(OC)c3o2)cc1OC", "note": "[formula (III), 5,6,7,8,3′,4′-hexamethoxyflavone]", "values": [{"measurement": "Melanin production ratio (% of control)", "setting": "[1]", "result": "35 % of control"}, {"measurement": "Pigmentation degree ΔL, After 40 days", "setting": "UV-induced pigmentation; [2]", "result": "−3.2"}, {"measurement": "Pigmentation degree ΔL, After 20 days", "setting": "UV-induced pigmentation; [2]", "result": "−5.5"}, {"measurement": "Pigmentation degree ΔL, After 20 days", "setting": "UV-induced pigmentation; [3]", "result": "−5.1"}, {"measurement": "Pigmentation degree ΔL, After 40 days", "setting": "UV-induced pigmentation; [4]", "result": "−1.9"}]}, {"smiles": "COc1ccc(-c2cc(=O)c3c(OC)c(OC)c(OC)c(OC)c3o2)cc1", "note": "[formula (IV), 5,6,7,8,4′-pentamethoxyflavone]", "values": [{"measurement": "Melanin production ratio (% of control)", "setting": "[1]", "result": "55 % of control"}, {"measurement": "Pigmentation degree ΔL, After 40 days", "setting": "UV-induced pigmentation; [2]", "result": "−3.5"}, {"measurement": "Pigmentation degree ΔL, After 20 days", "setting": "UV-induced pigmentation; [2]", "result": "−6.1"}, {"measurement": "Pigmentation degree ΔL, After 20 days", "setting": "UV-induced pigmentation; [3]", "result": "−5.6"}, {"measurement": "Pigmentation degree ΔL, After 40 days", "setting": "UV-induced pigmentation; [4]", "result": "−3.3"}]}, {"smiles": "COc1ccc(-c2cc(=O)c3c(OC)cc(OC)c(OC)c3o2)cc1OC", "note": "[formula (V), 5,7,8,3′,4′-pentamethoxyflavone]", "values": [{"measurement": "Melanin production ratio (% of control)", "setting": "[1]", "result": "60 % of control"}]}]}
